In patent US4082760A, “Derivatives of 2H,3H-benzimidazo(1,2-b)oxazole” (Italchemi S.p.A. Istituto Chimico Farmaceutico, priority 1975, dated 1978):

Assays:
Experiment in all cases: MIC of antibiotics alone or mixed with equimolar compound, beta-lactamase-producing germs
Assay type in all cases: cell-based
[1] = system: Protetts mirabilis R7; details: combinations: equimolar quantities
Excerpt: (§1) The capacity of the products of general formula (I) to compete with the action of the beta-lactamase may be shown by comparing the minimum inhibiting concentrations (MIC) of some penicillins and cephalosporins when mixed with equimolar quantities of the products of general formula I and when not so mixed, in relation to pathogenic germs which produce beta-lactamase.

[2] = system: Pseudomonas Aeruginosa R4; details: combinations: equimolar quantities
Excerpt: as §1

[3] = system: Escherichia Coli R9; details: combinations: equimolar quantities
Excerpt: as §1

[4] = system: Protetts mirabilis; details: Protetts mirabilis (strain number not given); combinations: equimolar quantities
Excerpt: as §1

[5] = system: Escherichia Coli R8; details: combinations: equimolar quantities
Excerpt: as §1

[6] = system: Protetts mirabilis R2; details: combinations: equimolar quantities
Excerpt: as §1

[7] = system: Protetts Rettgeri R5; details: combinations: equimolar quantities
Excerpt: as §1

[8] = system: Escherichia Coli R3; details: combinations: equimolar quantities
Excerpt: as §1

[9] = system: Pseudomonas Aeruginosa R1; details: combinations: equimolar quantities
Excerpt: as §1

MIC [1] | MIC [4] | MIC [5] | MIC [6] | MIC [7] | MIC [8] | MIC [9] | SMILES | MIC [2] | MIC [3]
1000 γ/cc | 1000 γ/cc | 500 γ/cc | 1000 γ/cc | 1000 γ/cc | 1000 γ/cc |  | CC1(C)S[C@@H]2[C@H](NC(=O)[C@H](N)c3ccccc3)C(=O)N2[C@H]1C(=O)O [Ampicillin] | 1000 γ/cc | 500 γ/cc
 |  |  |  |  |  |  | CC(=O)OCC1=C(C(=O)O)N2C(=O)[C@@H](NC(=O)Cc3cccs3)[C@H]2SC1 [Cephalothin] | 1000 γ/cc | 1000 γ/cc
 |  |  |  |  |  | 1000 γ/cc | O=C(Cc1cccs1)N[C@@H]1C(=O)N2C(C(=O)[O-])=C(C[n+]3ccccc3)CS[C@H]12 [Cephaloridine] |  | 
